Laboratory results published in patent US20100056565A1, “Heterocyclic Derivatives as M3 Muscarinic Receptors” (priority 2007, published 2010).
Structures can show the parent of a compound that is named as a salt. Where two headings read alike, the source gives them in different places.

What was measured:
[1] = biological target: T1, Recombinant human M3 receptor (Homo sapiens, UniProt P20309); assay: biochemical; type: binding
T1 construct: expressed in transfected cells; host or cells: CHO-K1 cells (membranes)

[2] = system: Isolated Guinea Pig Trachea; assay: Potency in isolated guinea pig trachea, inhibition of EFS-stimulated contraction; conditions: Cavia porcellus, electrical field stimulation
Procedure: Experiments were carried out at 37° C. in modified Krebs-Henseleit solution, (114 mM NaCl, 15 mM NaHCO3, 1 mM MgSO4, 1.3 mM CaCl2, 4.7 mM KCl, 11.5 mM glucose and 1.2 mM KH2PO4, pH 7.4) gassed with 95% O2/5% CO2. Indomethacin was added to a final concentration of 3 μM
Tracheae were removed from adult male Dunkin Hartley Guinea pigs and dissected free of adherent tissue before being cut open longitudinally in a line opposite the muscle. Individual strips of 2-3 cartilage rings in width were cut and suspended using cotton thread in 10 mL water-jacketed organ baths and attached to a force transducer ensuring that the tissue is located between two platinum electrodes. Responses were recorded via a MP100W/Acknowledge data acquisition system connected to a PC. Tissues were equilibrated for one hour under a resting tone of 1 g and were then subjected to electrical field stimulation at a frequency of 80 Hz with a pulse width of 0.1 ms, a unipolar pulse, triggered every 2 minutes. A “voltage-response” curve was generated for each tissue and a submaximal voltage then applied to every piece of tissue according to its own response to voltage. Tissues were washed with Krebs solution and allowed to stabilize under stimulation prior to addition of test compound. Concentration response curves were obtained by a cumulative addition of test compound in half-log increments. Once the response to each addition had reached a plateau the next addition was made. Percentage inhibition of EFS-stimulated contraction is calculated for each concentration of each compound added and dose response curves constructed using Graphpad Prism software and the IC50 calculated for each compound.

[3] = biological target: T2, human muscarinic receptors (M3) (Homo sapiens, UniProt P20309); assay: Muscarinic receptor radioligand binding assay, [3H]-NMS, filter plate format
T2 construct: purchased
Procedure: Radioligand binding studies utilising [^3H]-N-methyl scopolamine ([^3H]-NMS) and commercially available cell membranes expressing the human muscarinic receptors (M2 and M3) were used to assess the affinity of muscarinic antagonists for M2 and M3 receptors. Membranes in TRIS buffer were incubated in 96-well plates with [^3H]-NMS and M3 antagonist at various concentrations for 3 hours. Membranes and bound radioligand were then harvested by filtration and allowed to dry overnight. Scintillation fluid was then added and the bound radioligand counted using a Canberra Packard Topcount scintillation counter

[4] = M3, SPA format assay, read-out: Ki in the SPA format assay
[5] = SPA format, read-out: M3 Ki (SPA format)
[6] = filter plate format, read-out: M3 Ki (Filter plate format)
[7] = M3, filter plate assay, read-out: Ki value in the filter plate assay

T1 sequence (P20309 whole entry): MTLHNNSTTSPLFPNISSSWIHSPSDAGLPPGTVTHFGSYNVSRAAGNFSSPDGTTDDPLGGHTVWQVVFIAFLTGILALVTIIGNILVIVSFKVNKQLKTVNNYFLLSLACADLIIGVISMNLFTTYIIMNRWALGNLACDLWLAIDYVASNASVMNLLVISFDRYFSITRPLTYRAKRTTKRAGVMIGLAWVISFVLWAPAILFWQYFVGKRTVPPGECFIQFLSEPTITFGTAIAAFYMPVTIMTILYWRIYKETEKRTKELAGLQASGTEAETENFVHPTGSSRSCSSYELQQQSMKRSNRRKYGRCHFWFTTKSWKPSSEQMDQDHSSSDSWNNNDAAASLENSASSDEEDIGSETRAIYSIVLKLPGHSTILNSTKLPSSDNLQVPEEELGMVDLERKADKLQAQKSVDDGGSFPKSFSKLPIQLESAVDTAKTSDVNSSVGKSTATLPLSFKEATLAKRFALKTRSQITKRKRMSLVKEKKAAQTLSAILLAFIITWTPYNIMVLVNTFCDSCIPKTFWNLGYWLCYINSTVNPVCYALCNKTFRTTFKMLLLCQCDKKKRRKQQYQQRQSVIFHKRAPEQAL
T2 sequence (P20309 whole entry): as above

Structure (SMILES)	Ki [1, 5]	Ki [3, 6]	also measured
O[C@](c1ccccc1)(c1ncc(C[N+]23CCC(CC2)[C@@H](COc2ccccc2)C3)o1)C1CCCCC1 [Example 25, (R)-1-[2-((R)—Cyclohexyl-hydroxy-phenyl-methyl)-oxazol-5-ylmethyl]-3-phenoxymethyl-1-azonia-bicyclo[2.2.2]octane; bromide]	< 5 nM		Ki [1, 4]: 0.13 nM; IC50 [2]: 1.9 nM
O=C(O[C@@H]1C[N+]2(Cc3cnc([C@](O)(c4ccccc4)C4CCCCC4)o3)CCC1CC2)c1ccccc1 [Example 10, (S)-3-benzoyloxy-1-[2-((R)-cyclohexyl-hydroxy-phenyl-methyl)-oxazol-5-ylmethyl]-1-azonia-bicyclo[2.2.2]octane; formate]			Ki ([3]; M3 Ki (Filter plate format), filter plate format): 5 to 20 nM; Ki ([1]; M3 Ki (SPA format, SPA format)): 5 to 20 nM
OC(c1ccccc1)(c1ccccc1)c1ncc(C[N+]23CCC(CC2)C(Oc2ccccc2)C3)o1 (single isomer, unassigned; enantiomer 1) [Example 1, 1-[2-(Hydroxy-diphenyl-methyl)-oxazol-5-ylmethyl]-3-phenoxy-1-azoniabicyclo[2.2.2]octane bromide, enantiomer 1]	> 20 nM	> 20 nM	
OC(c1ccccc1)(c1ncc(C[N+]23CCC(CC2)C(Oc2ccccc2)C3)o1)C1CCCCC1 (single isomer, unassigned; enantiomer 1) [Example 3, 1-[2-[(RS)—(Cyclohexyl-hydroxy-phenyl-methyl)]-oxazol-5-ylmethyl]-3-phenoxy-1-azonia-bicyclo[2.2.2]octane bromide, enantiomer 1]		5 to 20 nM	
OC(c1ccccc1)(c1ccccc1)c1noc(C[N+]23CCC(CC2)[C@@H](Oc2ccc(F)cc2)C3)n1 [Example 95, (R)-3-(4-Fluoro-phenoxy)-1-[3-(hydroxy-diphenyl-methyl)-[1,2,4]oxadiazol-5-ylmethyl]-1-azonia-bicyclo[2.2.2]octane; chloride]	< 5 nM		Ki [1, 4]: 0.17 nM; IC50 [2]: 0.6 nM
OC(c1ccccc1)(c1ncc(C[N+]23CCC(CC2)C(Oc2ccccc2)C3)o1)C1CCCCC1 (single isomer, unassigned; enantiomer 2) [Example 4, 1-[2-[(RS)—(Cyclohexyl-hydroxy-phenyl-methyl)]-oxazol-5-ylmethyl]-3-phenoxy-1-azonia-bicyclo[2.2.2]octane bromide, enantiomer 2]		< 5 nM	Ki [3, 7]: 2 nM
OC(c1ccccc1)(c1ccccc1)c1ncc(C[N+]23CCC(CC2)C(Oc2ccccc2)C3)o1 (single isomer, unassigned; enantiomer 2) [Example 2, 1-[2-(Hydroxy-diphenyl-methyl)-oxazol-5-ylmethyl]-3-phenoxy-1-azoniabicyclo[2.2.2]octane bromide, enantiomer 2]	< 5 nM	< 5 nM	Ki [3, 7]: 0.9 nM
O[C@](c1ccccc1)(c1ncc(C[N+]23CCC(c4ccccc4)(CC2)CC3)o1)C1CCCCC1 [Example 11, 1-[2-((R)-cyclohexyl-hydroxy-phenyl-methyl)-oxazol-5-ylmethyl]-4-phenyl-1-azonia-bicyclo[2.2.2]octane; formate]	> 20 nM	> 20 nM	
O[C@](c1ccccc1)(c1ncc(C[N+]23CCC(CC2)[C@@H](OCc2ccccc2)C3)o1)C1CCCC1 [Example 42, (R)-3-benzyloxy-1-[2-((R)-cyclopentyl-hydroxy-phenyl-methyl)-oxazol-5-ylmethyl]-1-azonia-bicyclo[2.2.2]octane; formate]	< 5 nM		Ki [1, 4]: 0.09 nM; IC50 [2]: 0.7 nM
OC(c1ccccc1)(c1cc(C[N+]23CCC(CC2)[C@@H](Sc2ccccc2)C3)on1)C1CCCCC1 (single isomer, unassigned) [Example 70, 1-[3-(Cyclohexyl-hydroxy-phenyl-methyl)-isoxazol-5-ylmethyl]-3-phenylsulfanyl-1-azonia-bicyclo[2.2.2]octane; chloride]	< 5 nM		Ki [1, 4]: 0.65 nM; IC50 [2]: 2.8 nM
O[C@](c1ccccc1)(c1ncc(C[N+]23CCC(CC2)[C@@H](Oc2cccc(F)c2)C3)o1)C1CCCCC1 [Example 67, (R)-1-[2-((R)—Cyclohexyl-hydroxy-phenyl-methyl)-oxazol-5-ylmethyl]-3-(3-fluoro-phenoxy)-1-azonia-bicyclo[2.2.2]octane; bromide]	< 5 nM		
OC(c1ccccc1)(c1cc(C[N+]23CCC(CC2)[C@@H](CSc2ccccc2)C3)on1)C1CCCCC1 (single isomer, unassigned) [Example 124]	< 5 nM		
OC(c1ccccc1)(c1ccccc1)c1ncc(C[N+]23CCC(CC2)[C@@H](Oc2cccc(C(F)(F)F)c2)C3)o1 [Example 75, (R)-1-[2-[Hydroxy-diphenyl-methyl)-oxazol-5-ylmethyl]-3-(3-trifluoromethyl-phenoxy)-1-azonia-bicyclo[2.2.2]octane; bromide]	< 5 nM		
OC(c1ccccc1)(c1ccccc1)c1noc(C[N+]23CCC(CC2)[C@@H](Oc2cccc(Cl)c2)C3)n1 [Example 117, (R)-3-(3-Chloro-phenoxy)-1-[3-(hydroxy-diphenyl-methyl)-[1,2,4]oxadiazol-5-ylmethyl]-1-azonia-bicyclo[2.2.2]octane; chloride]	< 5 nM		
